Assays:
[1] = molecular target: T1, TRPM7/CHAK1 (Homo sapiens, UniProt Q96QT4); test: Kinase panel assay (radiolabelled); format: biochemical; details: control NH125
T1 construct: purchased Reaction Biology Corp
Description: (§1) Every inhibitory activity of tested compounds was measured by radiolabelled method of Reaction Biology Corp). The radiolabelled ATP ([γ-^33P] ATP) replaced a substrate with ^33P-phosphorylated substrate so that the activity of a kinase was measured from the radiolabelled phosphorylated substrate. Kinase panel assay was tested at 30 μM testing compounds with an ATP concentration of 10 μM and a substrate concentration of 10 μM. % Residual activity against GSK3β was measured at 10 uM compounds 1 and 2. […] Curve fits of control compounds were performed where the enzyme activities at the highest concentration of compounds were less than 65%. The concentration of DMSO was controlled and raw data, % kinase activity was calculated relative to DMSO controls.

[2] = molecular target: GSK3β (Homo sapiens, UniProt P49841); test: GSK3β radiolabelled kinase assay (% residual activity, IC50, ATP competition); format: biochemical; details: for remaining activity at 10 µM: at 10 μM compound
GSK3β, sequence (P49841 whole entry): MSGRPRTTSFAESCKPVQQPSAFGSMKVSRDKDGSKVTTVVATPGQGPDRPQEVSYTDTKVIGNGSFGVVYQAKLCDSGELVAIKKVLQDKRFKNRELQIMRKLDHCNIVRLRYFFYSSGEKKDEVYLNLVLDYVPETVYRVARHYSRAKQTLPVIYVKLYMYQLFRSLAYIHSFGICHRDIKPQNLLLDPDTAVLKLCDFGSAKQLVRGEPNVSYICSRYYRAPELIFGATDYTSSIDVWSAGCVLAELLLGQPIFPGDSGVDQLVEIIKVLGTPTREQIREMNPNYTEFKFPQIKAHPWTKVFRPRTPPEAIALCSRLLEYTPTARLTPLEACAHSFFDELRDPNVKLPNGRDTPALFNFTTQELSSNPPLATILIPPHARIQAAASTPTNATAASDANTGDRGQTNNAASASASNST

[3] = test system: NO production in LPS-activated BV-2 cells; test: NO production assay (Griess) in LPS-activated BV-2 cells; format: cell-based, murine; details: Mus musculus, read-out: NO Inhibition IC50
Description: (§2) 3-(4,5-dimethylthiazol-2-yl)-2,5-diphenyl-tetrazolium bromide (MTT) assay was performed to evaluate the cytotoxicity of the samples to the microglia. BV2 cells at the density of 4 × 10^4 cells /well were seeded in the 96 well plate and incubated for 24 h. Seeded cells were pre-treated with different concentration of the samples, and LPS (100 ng/ml) activation was performed after 30 min of compound treatment. Treated plate were incubated for 24 h in the incubator and nitric oxide assay and cell viability assay was performed. Treated cell’s conditioned medium was used to evaluate the NO assay, and the attached cells were used to evaluate the cell viability assay. 50 µL of conditioned medium (CM) from treated cells were transferred to a new 96 well plate for NO assay. This CM was mixed with the equal volume of the mixture of Gries reagent ((1% sulfanilamide and 0.1% N-1-napthylethylenediamine dihydrochloride). NaNO2 was used as standard and the colorimetric change were evidenced by measuring its OD at 540 nm in a microplate reader. The cells in the plate were incubated for 1 h with MTT solution making it the final concentration of […]. Blue stained cells were incubated with 200 ul of DMSO and the solution get changed to purple/formazan color and it was observed by measuring the absorbance at 570 nm in a microplate reader.NG-mono-methyl-L-arginine (L-NMMA), a well-known nitric oxide synthase (NOS) inhibitor, was used as a positive control.

[4] = MTT cell viability assay; format: cell-based, murine; details: mouse, BV-2 microglia cells (LPS-activated), 5 μM compound, % of LPS, mean ± SD
Description: as §2

[5] = molecular target: T2, PDK1/PDHK1 (Homo sapiens, UniProt Q15118); test: Kinase panel assay (radiolabelled); format: biochemical; details: control GW5074
T2 construct: purchased Reaction Biology Corp
T2 sequence (Q15118 29-436): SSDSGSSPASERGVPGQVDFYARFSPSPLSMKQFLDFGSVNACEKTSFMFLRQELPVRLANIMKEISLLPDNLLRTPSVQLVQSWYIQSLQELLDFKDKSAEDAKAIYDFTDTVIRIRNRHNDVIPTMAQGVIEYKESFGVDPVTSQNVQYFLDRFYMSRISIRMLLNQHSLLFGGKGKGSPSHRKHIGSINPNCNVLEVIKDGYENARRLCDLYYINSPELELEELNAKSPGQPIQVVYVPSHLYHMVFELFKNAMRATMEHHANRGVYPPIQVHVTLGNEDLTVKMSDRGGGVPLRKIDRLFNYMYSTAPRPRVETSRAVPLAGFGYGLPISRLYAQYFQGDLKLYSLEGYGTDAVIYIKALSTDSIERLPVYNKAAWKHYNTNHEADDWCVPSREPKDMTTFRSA
Description: as §1

[6] = molecular target: T3, PDK2/PDHK2 (Homo sapiens, UniProt Q15119); test: Kinase panel assay (radiolabelled); format: biochemical; details: control GW5074
T3 construct: purchased Reaction Biology Corp
Description: as §1

[7] = molecular target: T4, PDK3/PDHK3 (Homo sapiens, UniProt Q15120); test: Kinase panel assay (radiolabelled); format: biochemical; details: control GW5074
T4 construct: purchased Reaction Biology Corp
T4 sequence (Q15120 whole entry): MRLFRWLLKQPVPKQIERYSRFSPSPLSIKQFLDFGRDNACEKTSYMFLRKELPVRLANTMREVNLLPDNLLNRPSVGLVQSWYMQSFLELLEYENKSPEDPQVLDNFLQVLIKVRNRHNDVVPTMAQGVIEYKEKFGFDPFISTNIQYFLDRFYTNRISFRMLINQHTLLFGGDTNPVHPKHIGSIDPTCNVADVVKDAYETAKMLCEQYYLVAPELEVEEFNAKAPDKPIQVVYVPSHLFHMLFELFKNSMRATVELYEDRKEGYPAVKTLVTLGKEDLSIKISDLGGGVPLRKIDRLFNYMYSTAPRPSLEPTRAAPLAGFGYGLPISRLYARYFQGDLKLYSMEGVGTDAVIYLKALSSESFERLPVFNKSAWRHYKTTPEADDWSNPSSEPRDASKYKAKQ
Description: as §1

[8] = molecular target: T5, PDK4/PDHK4 (Homo sapiens, UniProt Q16654); test: Kinase panel assay (radiolabelled); format: biochemical; details: control GW5074
T5 construct: purchased Reaction Biology Corp
T5 sequence (Q16654 whole entry): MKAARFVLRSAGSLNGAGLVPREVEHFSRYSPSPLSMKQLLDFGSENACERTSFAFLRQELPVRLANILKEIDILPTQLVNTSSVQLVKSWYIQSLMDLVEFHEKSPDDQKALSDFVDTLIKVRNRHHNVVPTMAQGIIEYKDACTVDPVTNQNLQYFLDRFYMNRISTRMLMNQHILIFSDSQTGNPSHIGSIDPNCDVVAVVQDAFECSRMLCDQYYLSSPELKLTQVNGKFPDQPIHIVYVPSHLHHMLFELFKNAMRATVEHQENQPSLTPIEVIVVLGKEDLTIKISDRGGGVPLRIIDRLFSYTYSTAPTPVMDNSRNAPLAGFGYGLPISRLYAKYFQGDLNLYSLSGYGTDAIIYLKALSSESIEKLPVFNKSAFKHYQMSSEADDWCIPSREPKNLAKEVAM
Description: as §1

T1 sequence (Q96QT4 whole entry): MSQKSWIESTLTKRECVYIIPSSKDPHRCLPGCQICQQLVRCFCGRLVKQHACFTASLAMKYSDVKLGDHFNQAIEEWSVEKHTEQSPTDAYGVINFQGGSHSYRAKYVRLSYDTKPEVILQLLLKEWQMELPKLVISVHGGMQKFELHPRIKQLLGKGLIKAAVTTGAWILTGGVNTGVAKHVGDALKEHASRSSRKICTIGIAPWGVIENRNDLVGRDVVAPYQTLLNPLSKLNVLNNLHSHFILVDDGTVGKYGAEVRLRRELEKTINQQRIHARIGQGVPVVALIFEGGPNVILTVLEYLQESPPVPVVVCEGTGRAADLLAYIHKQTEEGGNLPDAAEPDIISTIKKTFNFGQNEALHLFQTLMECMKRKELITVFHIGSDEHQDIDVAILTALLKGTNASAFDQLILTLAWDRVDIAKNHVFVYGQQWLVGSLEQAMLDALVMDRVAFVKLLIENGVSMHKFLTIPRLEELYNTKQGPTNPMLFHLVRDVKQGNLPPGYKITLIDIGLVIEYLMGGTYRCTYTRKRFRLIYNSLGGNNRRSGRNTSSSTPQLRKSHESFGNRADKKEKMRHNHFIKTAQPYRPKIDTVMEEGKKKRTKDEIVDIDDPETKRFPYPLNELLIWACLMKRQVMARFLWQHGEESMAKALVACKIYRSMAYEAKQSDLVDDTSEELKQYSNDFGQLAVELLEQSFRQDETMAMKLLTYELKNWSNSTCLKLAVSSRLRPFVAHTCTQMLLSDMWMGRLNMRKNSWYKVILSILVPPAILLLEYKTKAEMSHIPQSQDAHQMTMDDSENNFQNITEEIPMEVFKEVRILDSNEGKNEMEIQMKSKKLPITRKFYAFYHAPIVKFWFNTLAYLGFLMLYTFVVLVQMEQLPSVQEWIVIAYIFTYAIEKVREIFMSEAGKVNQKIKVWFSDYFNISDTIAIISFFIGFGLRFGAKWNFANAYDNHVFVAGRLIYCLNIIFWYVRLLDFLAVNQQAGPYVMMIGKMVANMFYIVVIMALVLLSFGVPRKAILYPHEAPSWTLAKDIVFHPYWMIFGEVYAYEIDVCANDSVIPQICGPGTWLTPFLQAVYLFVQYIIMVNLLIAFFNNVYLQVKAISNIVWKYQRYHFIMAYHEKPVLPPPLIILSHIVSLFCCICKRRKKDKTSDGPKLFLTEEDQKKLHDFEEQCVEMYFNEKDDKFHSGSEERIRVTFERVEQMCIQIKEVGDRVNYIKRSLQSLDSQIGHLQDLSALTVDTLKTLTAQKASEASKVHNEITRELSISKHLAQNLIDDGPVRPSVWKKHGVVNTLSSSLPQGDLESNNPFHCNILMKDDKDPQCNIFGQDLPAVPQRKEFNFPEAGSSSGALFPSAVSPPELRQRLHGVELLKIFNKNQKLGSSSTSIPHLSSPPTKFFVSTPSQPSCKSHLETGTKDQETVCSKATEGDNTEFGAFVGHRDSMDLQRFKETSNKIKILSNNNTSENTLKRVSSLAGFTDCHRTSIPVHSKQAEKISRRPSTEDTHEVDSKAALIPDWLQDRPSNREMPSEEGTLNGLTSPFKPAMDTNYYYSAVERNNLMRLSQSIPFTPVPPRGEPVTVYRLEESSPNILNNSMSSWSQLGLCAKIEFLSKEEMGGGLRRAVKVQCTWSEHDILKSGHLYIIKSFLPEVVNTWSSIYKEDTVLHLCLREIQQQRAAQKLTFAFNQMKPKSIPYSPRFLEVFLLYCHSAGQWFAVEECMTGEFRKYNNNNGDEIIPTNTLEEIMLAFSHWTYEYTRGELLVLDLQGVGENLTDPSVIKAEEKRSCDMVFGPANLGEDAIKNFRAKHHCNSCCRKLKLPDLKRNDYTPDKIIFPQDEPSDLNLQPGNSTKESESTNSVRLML

Compound	remaining activity at 10 µM [2]	IC50 [3]	viability at 24 h, 5 µM [4]	other results
CCCCCCCCCCCCCCCCn1cc[n+](Cc2ccccc2)c1C [NH125, reference compound]	–	–	–	IC50 [1]: 5860 nM
N#Cc1cccc(-n2cc(CC3COC4(C=CC(=O)C=C4)N(c4ccccc4)C3=O)nn2)c1 (stereo not drawn) [2g, 3-(4-((4,9-Dioxo-5-phenyl-1-oxa-5-azaspiro[5.5]undeca-7,10-dien-3-yl)methyl)-1H-1,2,3-triazol-1-yl)benzonitrile]	41.8 ± 0.9%	800 ± 130 nM	128 ± 17%	–
COc1cc(OC)cc(-n2cc(CC3COC4(C=CC(=O)C=C4)N(c4ccccc4)C3=O)nn2)c1 (stereo not drawn) [2m, 3-((1-(3,5-B=Dimethoxyphenyl)-1H-1,2,3-triazol-4-yl)methyl)-5-phenyl-1-oxa-5-azaspiro[5.5]undeca-7,10-diene-4,9-dione]	114 ± 4.5%	1220 ± 300 nM	108 ± 5%	–
CSc1ccc(-n2cc(CC3COC4(C=CC(=O)C=C4)N(c4ccccc4)C3=O)nn2)cc1 (stereo not drawn) [2i, 3-((1-(4-(Methylthio)phenyl)-1H-1,2,3-triazol-4-yl)methyl)-5-phenyl-1-oxa-5-azaspiro[5.5]undeca-7,10-diene-4,9-dione]	66.9 ± 11.4%	980 ± 40 nM	121 ± 2%	–
C#CCC1COC2(C=CC(=O)C=C2)N(c2ccccc2)C1=O (stereo not drawn) [compound 7, 5-Phenyl-3-(prop-2-yn-1-yl)-1-oxa-5-azaspiro[5.5]undeca-7,10-diene-4,9-dione]	55.7 ± 8.4%	680 ± 70 nM	100 ± 24%	–
O=C1C=CC2(C=C1)OCC(Cc1cn(-c3ccc(S(=O)(=O)C(F)(F)F)cc3)nn1)C(=O)N2c1ccccc1 (stereo not drawn) [2k, 5-Phenyl-3-((1-(4-((trifluoromethyl)sulfonyl)phenyl)-1H-1,2,3-triazol-4-yl)methyl)-1-oxa-5-azaspiro[5.5]undeca-7,10-diene-4,9-dione]	35.1 ± 4.2%	770 ± 60 nM	71 ± 3%	–
Cc1cc(=O)oc2cc(-n3cc(CC4COC5(C=CC(=O)C=C5)N(c5ccccc5)C4=O)nn3)ccc12 (stereo not drawn) [2p, 3-((1-(4-methyl-2-oxo-2H-chromen-7-yl)-1H-1,2,3-triazol-4-yl)methyl)-5-phenyl-1-oxa-5-azaspiro[5.5]undeca-7,10-diene-4,9-dione]	35.7 ± 3.7%	850 ± 190 nM	97 ± 2%	IC50 ([2]; ATP 1 μM (Table 2), read-out: IC50 on GSK3β (converted)): 11400 nM
O=C1Nc2ccc(I)cc2/C1=C/c1cc(Br)c(O)c(Br)c1 [GW5074, reference compound]	–	–	–	IC50 [5]: 12100 nM; IC50 [6]: 3280 nM; IC50 [7]: 1820 nM; IC50 [8]: 2120 nM
CC(=O)Nc1ccc(-n2cc(CC3COC4(C=CC(=O)C=C4)N(c4ccccc4)C3=O)nn2)cc1 (stereo not drawn) [2l, N-(4-(4-((4,9-Dioxo-5-phenyl-1-oxa-5-azaspiro[5.5]undeca-7,10-dien-3-yl)methyl)-1H-1,2,3-triazol-1-yl)phenyl)acetamide]	122 ± 2.3%	930 ± 60 nM	109 ± 16%	–
O=C1C=CC2(C=C1)OCC(Cc1cn(-c3ccc4c(c3)OCO4)nn1)C(=O)N2c1ccccc1 (stereo not drawn) [2o, 3-((1-(benzo[d][1,3]dioxol-5-yl)-1H-1,2,3-triazol-4-yl)methyl)-5-phenyl-1-oxa-5-azaspiro[5.5]undeca-7,10-diene-4,9-dione]	75 ± 0.7%	740 ± 80 nM	89 ± 8%	–
COc1ccc(-n2cc(CC3COC4(C=CC(=O)C=C4)N(c4ccccc4)C3=O)nn2)cc1 (stereo not drawn) [2h, 3-((1-(4-Methoxyphenyl)-1H-1,2,3-triazol-4-yl)methyl)-5-phenyl-1-oxa-5-azaspiro[5.5]undeca-7,10-diene-4,9-dione]	112 ± 4.5%	760 ± 10 nM	124 ± 7%	–

Source: publication PMC7719162, “Positioning of an unprecedented spiro[5.5]undeca ring system into kinase inhibitor space” (Scientific Reports, 2020)
